Assay in all cases: growth of human tumour cells (NCI), 48 h
Assay [1] deals with NCI/ADR-RES.
For assay [2], the system named is PC-3.
The subject of assay [3] is BT-549.
For assay [4], the system named is SK-MEL-2.
In assay [5] the test system is SN12C.
Assay [6] relates to RXF 393.
Assay [7] has as its system IGROV-1.
In assay [8] the test system is SW-620.
Assay [9] relates to HCC 2998.
The subject of assay [10] is MOLT-4.
Assay [11] has as its system OVCAR-3.
The subject of assay [12] is OVCAR-8.
In assay [13] the test system is M14.
Assay [14] relates to UACC-257.
The test system of assay [15] is HL-60.
Assay [16] deals with CAKI-1.
The test system of assay [17] is SNB-75.
The subject of assay [18] is MDA-N.
Assay [19] relates to SF-539.
For assay [20], the system named is ACHN.

We go through ten compounds from ChEMBL document CHEMBL1201862, “PubChem BioAssay data set” (2004).

Molecules are shown by their SMILES.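 Method: 48-hour compound exposure of cells in 96-well plates, five concentrations, linear interpolation of endpoints. At the GI50, growth is halved.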 Activity calls are given as the source filed them. No stated cut-off is given here; in the data, active = GI50 up to about 1.1 µM and inactive = higher.

With `Cc1cc(C)c2c(=N)c3ccccc3n(CCCCCCn3c4ccccc4c(=N)c4c(C)cc(C)nc43)c2n1`, the GI50 in assay [1] is 1.42 µM (inactive); in [2], 1.28 µM (inactive); in assay [3], 1.56 µM (inactive); in assay [4] it was 1.66 µM (inactive); in assay [5], 1.5 µM (inactive); in assay [6], 1.25 µM (inactive). Besides, the GI50 in assay [7] is 1.44 µM (inactive); in [8], 0.209 µM (active); in assay [9], 0.172 µM (active); in assay [10], 0.627 µM (active); in assay [11], 1.66 µM (inactive); in assay [12], 1.68 µM (inactive). The GI50 in assay [13] was 1.85 µM (inactive); in assay [14], 1.64 µM (inactive); in assay [15], 0.28 µM (active); in [16], 1.45 µM (inactive); in assay [17], 0.628 µM (active); in [18], 1.78 µM (inactive). Further, the figures for the GI50 in [19] and in assay [20] were 1.54 µM (inactive) and 1.55 µM (inactive), respectively.

On to `COCC1OC(OC2OCC3OC4(OCC(O)(C(C)OC)C5OCOC54)OC3C2OC)C(OC)C(O)C1OC1OC(C)C(OC)C(OC2OC(C)C3OC4(CC(O)C(OC5CC(OC6CC(C)([N+](=O)[O-])C(OC)C(C)O6)C(OC(=O)c6c(C)c(Cl)c(O)c(Cl)c6OC)C(C)O5)C(C)O4)OC3(C)C2O)C1O` (stereo not given), for which the GI50 in assay [1], in assay [2], in assay [3], in assay [4], in [5] and in assay [6] was > 100 µM (inactive) throughout. Also, the GI50 in [7], in [8], in [9], in assay [10], in assay [11] and in [12] was > 100 µM (inactive) throughout. Besides, the GI50 in assay [13], in assay [14], in [15], in assay [16], in assay [17] and in assay [18] was > 100 µM (inactive) in each case. The GI50 in assay [19] and in assay [20] was > 100 µM (inactive) throughout.

On to `Cc1nn(C(=O)c2ccc(Cl)cc2)c2c1C(c1ccc(O)cc1)SC(=N)N2` (stereo not given), for which the GI50 in [1], in assay [2], in [3], in [4], in assay [5] and in [6] was > 10 µM (inactive) each time. In addition, the GI50 in assay [7], in assay [8], in assay [9], in assay [10], in [11] and in assay [12] was > 10 µM (inactive) in each case. Besides, the GI50 in assay [13], in assay [14], in [15], in assay [16], in [17] and in assay [18] was > 10 µM (inactive) each time. The GI50 in [19] and in [20] was > 10 µM (inactive) each time.

Regarding `Cc1cc(/N=C2\C=C(Nc3cc(C)on3)C(=O)c3ccccc32)no1`, the GI50 in [1] is 69 µM (inactive); in [2] it was > 100 µM (inactive); in [3], 27.5 µM (inactive); in assay [4], 17.1 µM (inactive); in [5], > 80.9 µM (inactive); in assay [6] it was 30.3 µM (inactive). For the same compound, the GI50 in [7] is 33.1 µM (inactive); in [8], > 100 µM (inactive); in [9] it was > 100 µM (inactive); in [10], > 100 µM (inactive); in assay [11], > 100 µM (inactive); in assay [12], 37.3 µM (inactive). Besides, the GI50 in assay [13] is 34.7 µM (inactive); in [14], 13.9 µM (inactive); in assay [15], > 100 µM (inactive); in assay [16] it was > 85.9 µM (inactive); in assay [17], 31.6 µM (inactive); in assay [18], 1.96 µM (inactive). In addition, the GI50 in assay [19] was 31.6 µM (inactive); in assay [20], > 64.3 µM (inactive).

Regarding `CC(C)C1OC23CCCCC2C(C#N)(C#N)C1(C#N)C(=N)O3` (stereo not given), the GI50 in assay [1] was 34.8 µM (inactive); in assay [2], 30.4 µM (inactive); in [3] it was 18.8 µM (inactive); in assay [4] it was 26 µM (inactive); in [5], 15.2 µM (inactive); in assay [6], 20.5 µM (inactive). For the same compound, the GI50 was > 10 µM (inactive) in assay [7]; 13.7 µM (inactive) in [8]; 13.4 µM (inactive) in assay [9]; 23.1 µM (inactive) in assay [10]; 22.7 µM (inactive) in assay [11]; 20.2 µM (inactive) in assay [12]. Moreover, the GI50 is 12.8 µM (inactive) in [13]; 20.6 µM (inactive) in assay [14]; 5.31 µM (inactive) in [15]; 8.34 µM (inactive) in assay [16]; 28.4 µM (inactive) in [17]; 15.8 µM (inactive) in assay [18]. Also, the values for the GI50 in [19] and in [20] were 18 µM (inactive) and 33.1 µM (inactive), respectively.

As to `Cc1c(C)c2c(c(N)c1C#N)C(=O)N(CCc1ccccc1)C2=O`, the GI50 in assay [1], in assay [2], in assay [3], in [4], in assay [5] and in assay [6] was > 100 µM (inactive) in each case. Moreover, the GI50 was > 100 µM (inactive) in [7]; > 100 µM (inactive) in assay [8]; > 100 µM (inactive) in assay [9]; 72.6 µM (inactive) in assay [10]; > 100 µM (inactive) in assay [11]; > 100 µM (inactive) in assay [12]. Besides, the GI50 in [13] was > 100 µM (inactive); in [14], > 100 µM (inactive); in assay [15] it was 29.2 µM (inactive); in [16] it was > 100 µM (inactive); in [17], > 100 µM (inactive); in [18], > 100 µM (inactive). Besides, the GI50 in assay [19] and in [20] was > 100 µM (inactive) throughout.

For `COc1ccc2c(-c3csc(-c4c[nH]c5ccccc45)n3)c[nH]c2c1`, the GI50 in [1] was 6.61 µM (inactive); in assay [2], 4.7 µM (inactive); in assay [3], 11.8 µM (inactive); in assay [4], 14.5 µM (inactive); in assay [5] it was 7.57 µM (inactive); in assay [6] it was 5.01 µM (inactive). Also, the GI50 in [7] is 5.58 µM (inactive); in assay [8], 6.92 µM (inactive); in assay [9], 4.03 µM (inactive); in assay [10], 3.86 µM (inactive); in assay [11] it was 13.9 µM (inactive); in assay [12], 7.85 µM (inactive). The GI50 was 7.76 µM (inactive) in [13]; 12.7 µM (inactive) in assay [14]; 4.66 µM (inactive) in assay [15]; 12.1 µM (inactive) in assay [16]; 22 µM (inactive) in assay [17]; 8.73 µM (inactive) in assay [18]. The values for the GI50 in assay [19] and in assay [20] were 5.73 µM (inactive) and 5.48 µM (inactive), respectively.

Consider `c1csc(-c2csc(-c3ccsc3)c2)c1`, for which the GI50 in assay [1] was > 100 µM (inactive); in assay [2], > 100 µM (inactive); in [3], > 100 µM (inactive); in [4], > 100 µM (inactive); in [5], > 100 µM (inactive); in assay [6] it was > 46.9 µM (inactive). The GI50 was > 100 µM (inactive) in assay [7]; > 100 µM (inactive) in [8]; > 100 µM (inactive) in assay [9]; 62.4 µM (inactive) in [10]; > 100 µM (inactive) in [11]; > 100 µM (inactive) in [12]. For the same compound, the GI50 was > 75.9 µM (inactive) in assay [13]; > 100 µM (inactive) in [14]; > 74.6 µM (inactive) in assay [15]; > 100 µM (inactive) in assay [16]; > 92 µM (inactive) in [17]; > 100 µM (inactive) in assay [18]. Also, the GI50 was > 55.5 µM (inactive) in assay [19] and > 100 µM (inactive) in assay [20].

For the compound `CN(C)CCC(C#N)(c1ccccc1)c1ccccc1`, the GI50 in assay [1] is 93.5 µM (inactive); in [2], 87.3 µM (inactive); in assay [3], > 100 µM (inactive); in assay [4], > 100 µM (inactive); in assay [5] it was 72.4 µM (inactive); in assay [6], 40 µM (inactive). Also, the GI50 in assay [7] is 55.1 µM (inactive); in assay [8] it was > 100 µM (inactive); in assay [9], 17.5 µM (inactive); in assay [10] it was 0.102 µM (active); in assay [11] it was > 100 µM (inactive); in assay [12], 96.2 µM (inactive). Besides, the GI50 in assay [13] was 25.9 µM (inactive); in assay [14], 24.4 µM (inactive); in assay [15] it was 6.62 µM (inactive); in assay [16] it was > 100 µM (inactive); in assay [17], 52.6 µM (inactive); in assay [18], 45 µM (inactive). The GI50 in assay [19] and in [20] was > 100 µM (inactive) in each case.

`COC1CCC(O)C(/C=C/[N+](=O)[O-])C1` (stereo not given): the GI50 in assay [1] was 15 µM (inactive); in [2] it was 2.06 µM (inactive); in assay [3], 2.58 µM (inactive); in assay [4], 10.2 µM (inactive); in assay [5], 2.8 µM (inactive); in assay [6] it was 1.42 µM (inactive). Moreover, the GI50 is 1.66 µM (inactive) in assay [7]; 3.33 µM (inactive) in assay [8]; 1.7 µM (inactive) in assay [9]; 2.18 µM (inactive) in [10]; 8.3 µM (inactive) in assay [11]; 1.95 µM (inactive) in assay [12]. Moreover, the GI50 in [13] was 2.68 µM (inactive); in assay [14] it was 2.01 µM (inactive); in assay [15] it was 1.8 µM (inactive); in assay [16], 16.2 µM (inactive); in assay [17], 9.68 µM (inactive); in assay [18], 1.99 µM (inactive). Besides, the GI50 in assay [19] was 4.4 µM (inactive); in assay [20], 15.7 µM (inactive).
